We go through 15 compounds from patent US20100292255A1, “Therapeutic Compounds and Their Use in Treating Diseases and Disorders” (Myriad Pharmaceuticals, Inc., priority 2007, published 2010).

The test system of the first test is T1, purified human Hsp90.
T1 construct: purified human Hsp90 (Stressgen, SPP-770)
Put plainly: Hsp90 binding assay: displacement of BODIPY-labeled geldanamycin measured by fluorescence polarization. As to conditions: 5 μM compound; BODIPY-GM 10 nM, Hsp90 30 nM, overnight at room temperature. Summed up: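 Fluorescence polarization measured displacement of BODIPY-geldanamycin (10 nM) from purified human Hsp90 (30 nM). The buffer was HEPES-KOH pH 7.3 with molybdate, NP-40, gamma globulin and DTT, 2% DMSO, overnight at room temperature, ex/em 485/530 nm. % inhibition was calculated against DMSO controls, and points confounded by compound fluorescence were excluded.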
In general terms: Fluorescence polarisation rises when a labelled molecule tumbles more slowly, as on binding a larger partner.
For the compound `CS(=O)(=O)N1CCC(CCn2cnc(N)c3nc(Sc4cc5c(cc4C#N)OCCO5)nc2-3)CC1` [compound 55], the “GM displacement from purified Hsp90 measured by FP Inhibition by 5 μM compd. (%)” value turned out to be 26.0%.
Still for that read-out and setting: the figure for `N#Cc1cc2c(cc1Sc1nc3c(N)ncn(CCn4c(=O)n5n(c4=O)CC=CC5)c-3n1)OCO2` [compound 63] is 34.0%; for `Nc1ncn(CCC2CCN(C=O)CC2)c2nc(Sc3cc4c(cc3[N+](=O)[O-])OCO4)nc1-2` [compound 65, 4-(2-{6-Amino-8-[(6-nitro-1,3-benzodioxol-5-yl)thio]-3H-purin-3-yl}ethyl)piperidine-1-carbaldehyde] it is 25.0%; for `CC(=O)N1CCC(CCn2cnc(N)c3nc(Sc4cc5c(cc4[N+](=O)[O-])OCCO5)nc2-3)CC1` [compound 69, 3-[2-(1-Acetylpiperidin-4-yl)ethyl]-8-[(7-nitro-2,3-dihydro-1,4-benzodioxin-6-yl)thio]-3H-purin-6-amine] it is 46.0%.
Same read-out and setting: the figure for `CC(=O)N1CCC(CCn2cnc(N)c3nc(Sc4cc5c(cc4[N+](=O)[O-])OCO5)nc2-3)CC1` [compound 71, 3-[2-(1-Acetylpiperidin-4-yl)ethyl]-8-[(6-nitro-1,3-benzodioxol-5-yl)thio]-3H-purin-6-amine] is 23.0%; for `CC(=O)N1CCC(CCn2cnc(N)c3nc(Sc4cc5c(cc4Cl)OCCO5)nc2-3)CC1` [compound 72, 3-[2-(1-Acetylpiperidin-4-yl)ethyl]-8-[(7-chloro-2,3-dihydro-1,4-benzodioxin-6-yl)thio]-3H-purin-6-amine] it is 23.0%.

Still in this test, the particulars now being: BODIPY-GM 10 nM, Hsp90 30 nM, overnight at room temperature; read-out: GM displacement from purified Hsp90 measured by FP IC 50.
On to `N#Cc1cc2c(cc1Sc1nc3c(N)ncnc3n1CCC1CCN(C=O)CC1)OCCO2` [compound 57], for which the IC50 amounted to 120 nM.
The same measure, in the same setting: the value for `Cn1nnnc1N1CCC(CCn2c(Sc3cc4c(cc3C#N)OCCO4)nc3c(N)ncnc32)CC1` [compound 58, 7-[(6-Amino-9-{2-[1-(1-methyl-1H-tetrazol-5-yl)piperidin-4-yl]ethyl}-9H-purin-8-yl)thio]-2,3-dihydro-1,4-benzodioxine-6-carbonitrile] was 180 nM; that for `CC(=O)N1CCC(CCn2c(Sc3cc4c(cc3C#N)OCCO4)nc3c(N)ncnc32)CC1` [compound 60, 7-({9-[2-(1-Acetylpiperidin-4-yl)ethyl]-6-amino-9H-purin-8-yl}thio)-2,3-dihydro-1,4-benzodioxine-6-carbonitrile] was 60 nM; that for `CCC(=O)N1CCC(CCn2c(Sc3cc4c(cc3C#N)OCO4)nc3c(N)ncnc32)CC1` [compound 61] was 200 nM.
Still for that read-out and setting: the value for `Nc1ncnc2c1nc(Sc1cc3c(cc1[N+](=O)[O-])OCO3)n2CCC1CCN(C=O)CC1` [compound 64, 4-(2-{6-Amino-8-[(6-nitro-1,3-benzodioxol-5-yl)thio]-9H-purin-9-yl}ethyl)piperidine-1-carbaldehyde] was 1500 nM; that for `Nc1ncnc2c1nc(Sc1cc3c(cc1[N+](=O)[O-])OCCO3)n2CCC1CCN(C=O)CC1` [compound 66, 4-(2-{6-Amino-8-[(7-nitro-2,3-dihydro-1,4-benzodioxin-6-yl)thio]-9H-purin-9-yl}ethyl)piperidine-1-carbaldehyde] was 73 nM; that for `CC(=O)N1CCC(CCn2c(Sc3cc4c(cc3[N+](=O)[O-])OCCO4)nc3c(N)ncnc32)CC1` [compound 68, 9-[2-(1-Acetylpiperidin-4-yl)ethyl]-8-[(7-nitro-2,3-dihydro-1,4-benzodioxin-6-yl)thio]-9H-purin-6-amine] was 50 nM.
Same read-out and setting: the figure for `CC(=O)N1CCC(CCn2c(Sc3cc4c(cc3[N+](=O)[O-])OCO4)nc3c(N)ncnc32)CC1` [compound 70] is 455 nM; for `CC(=O)N1CCC(CCn2c(Sc3cc4c(cc3Cl)OCCO4)nc3c(N)ncnc32)CC1` [compound 73, 9-[2-(1-Acetylpiperidin-4-yl)ethyl]-8-[(7-chloro-2,3-dihydro-1,4-benzodioxin-6-yl)thio]-9H-purin-6-amine] it is 260 nM.
